Test results as given in patent US5045566A, “Novel imidate insecticides” (ICI Americas Inc., priority 1989, dated 1991).

Columns and labels:
Format in all cases: in vivo
[1] = tested on: Black Bean Aphid [Aphis fabae (Scop.)]; experiment: Black bean aphid spray test on nasturtium (BBA), 48 hours; conditions: percent of test compound in sprayed solution
In short: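 LC50, given as percent test compound in the sprayed liquid, was calculated from dosage-mortality curves using concentrations from 0.05% downward. Sprays in 50:50 acetone-water went to runoff on ~5 cm nasturtiums carrying 25-50 aphids of mixed ages, one day after infestation. Deaths were counted 48 h later under greenhouse conditions.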

[2] = tested on: Tobacco Budworm [Heliothis virescens (Fabricius)] eggs; experiment: Tobacco budworm eggs (TBW-E); conditions: percent in solution; 2-day old eggs
In short: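 Paper-towel patches of 2-day-old eggs dipped in acetone solutions of compound (0.1% downward), held on larval rearing medium at 78° F. Mortality scored once all control eggs had hatched and larvae were feeding; LC50 from dosage-mortality curves, expressed as percent compound in solution.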

[3] = tested on: Maize weevil [Sitophilus zeamais (Motschulsky)]; experiment: Maize weevil on dipped corn seeds (MW), 48 hours; conditions: percent in solution, adult weevils
In short: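 LC50, given as percent of compound in dipping solution, comes from dosage-mortality curves over concentrations descending from 0.01%. Four corn seeds soaked 2-3 s in 50:50 acetone:water solution were dried and held with 10 adult weevils, about 25° C, mortality read after 48 h.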

[4] = tested on: Aster Leafhopper [Macrosteles fascifrens (Stal)]; experiment: Aster leafhopper on dipped oat seedlings (LH), 48 hours; conditions: percent in solution, adults/nymphs
In short: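 Three ~10 cm oat seedlings per cup were dipped 2-3 seconds in 50-50 acetone-water compound solutions, dried, and caged with ten adult/nymph leafhoppers. Mortality was counted after 48 hours at concentrations from 0.05% downward. LC50, as percent compound in solution, came from dosage-mortality curves.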

[5] = tested on: Tobacco Budworm [Heliothis virescens (Fabricius)] larvae; experiment: Tobacco budworm larvae, contact (TBW-C), 5 days; conditions: percent in solution, second-instar larvae
In short: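 Cotton cotyledons dipped 2–3 s in compound in 50-50 acetone-water, dried, then infested with 5 second-instar larvae and held 5 days at high humidity. Mortality scored; LC50 from dosage-mortality curves, expressed as percent compound in solution, concentrations from 0.1% downward.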

[6] = tested on: Cabbage Looper [Trichoplusia ni (Hubner)]; experiment: Cabbage looper leaf dip (CL), 3-5 days; conditions: percent in solution, second-instar larvae
In short: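 Squash cotyledons dipped 2-3 s in compound in 50-50 acetone-water, dried, then infested with 5 second-instar larvae and held at high humidity. Mortality scored after 3-5 days at concentrations from 0.1% downward. LC50 from dosage-mortality curves, expressed as percent compound in solution.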

[7] = tested on: Rice water weevil [Lissorhoptrus oryzophilus (Kuschel)]; experiment: Rice water weevil topical (RWW), 48 hours; conditions: μg of test compound per weevil, female adults
Description: The compounds in Tables 1 and 2 above were tested for insecticidal activity using the following testing procedures. LC50 values, based on the results of these tests and calculated according to dosage-mortality curves, are expressed in Table 3.
Rice water weevil [Lissorhoptrus oryzophilus (Kuschel)]:
Test compounds were diluted in acetone. Droplets (1 ul) of test solutions were applied to the ventral abdomens of ten female adult weevils. The treated weevils were placed in containers with wet cotton balls and rice foliage. The containers were covered and kept at a temperature of about 25° C. Mortality was recorded after 48 hours. Test concentrations ranged from […] down to that at which 50% mortality occurred. The LC50 values are expressed below in Table 3 under the heading "RWW" in terms of μg of test compound per weevil.

[8] = tested on: Housefly [Musca domestica]; experiment: Housefly contact mortality in dishes (HF), 48 hours; conditions: μg of test compound per 25 female flies
In short: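 Dose range started at 100 μg per 25 female flies and went downward. Insects (1-2 days old) contacted a dried acetone/peanut-oil deposit in dishes; LC50 values come from dosage-mortality curves at 48 h.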

[9] = tested on: Beet Armyworm (Spodoptera exigua); experiment: Beet armyworm leaf dip (BAW), 5 days; conditions: percent in solution; second-instar larvae; five days
In short: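 Sugar beet leaves dipped 2–3 s in compound diluted in 50:50 acetone-water, dried, then infested with five second-instar larvae in humid petri dishes. Mortality scored at 5 days; concentrations from 0.1% downward. LC50 from dosage-mortality curves, expressed as percent compound in solution.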

Structure (SMILES) | LC50 BBA [1] [%] | LC50 TBW E (eggs) [2] [%] | LC50 MW [3] [%] | LC50 LH [4] [%] | LC50 TBW C (contact) [5] [%] | LC50 CL [6] [%] | LC50 RWW [7] [µg] | LC50 HF [8] [µg] | LC50 BAW [9] [%]
CC(C)C(=Nc1ccc(F)c(C(F)(F)F)c1)OCc1ccc(F)c(Oc2ccccc2)c1 [Compound 300] | 0.0003 | 0.024 | 0.01 | 0.00002 | 0.001 | 0.0003 | 0.075 | 14 | 
CC(C)C(=Nc1ccc(F)c(Cl)c1F)OCc1ccc(F)c(Oc2ccc(F)cc2)c1 [Compound 330] | 0.0001 | 0.037 | 0.001 | < 0.05 | 0.00035 | 0.00012 | 0.06 | 5 | 
FC(F)(F)c1cccc(N=C(OCc2cccc(Oc3ccccc3)c2)C(Cl)Cl)c1 [Compound 66, N-(3-Trifluoromethylphenyl)-O-(3-phenoxybenzyl)dichloroacetimidate] | 0.0003 | 0.06 |  | 0.001 |  | < 0.0025 | > 2.5 | 9.7 | 0.0065
CC(C)C(=Nc1ccc(F)c(I)c1)OCc1ccc(F)c(Oc2ccc(F)cc2)c1 [Compound 281] | 0.0003 | 0.006 | 0.005 |  | 0.00025 | 0.00002 | > 2.5 | 5 | 0.0027
CC(C)C(=Nc1ccc(F)c(Br)c1)OCc1ccc(F)c(Oc2ccc(Cl)cc2)c1 [Compound 298] |  | 0.015 | 0.008 | 0.0001 | 0.0008 | 0.0001 | > 2.5 | 13 | 
CC(C)C(=Nc1ccc(F)c(F)c1)OCc1ccc(F)c(Oc2ccc(Cl)cc2)c1 [Compound 295] | 0.0003 | 0.01 | 0.0053 | 0.0001 | 0.0005 | 0.00004 | > 2.5 | 7.8 | 
CC(C)C(=Nc1ccc(C(F)(F)F)cc1)OCc1ccc(F)c(Oc2ccc(Cl)cc2)c1 [Compound 324] | 0.0003 | 0.025 |  |  | 0.0004 | 0.00014 | 0.06 | > 100 | 0.0024
CC(C)C(=Nc1ccc(Cl)c(Cl)c1)OCc1ccc(F)c(Oc2ccc(Cl)cc2)c1 [Compound 296] | 0.0003 | 0.025 |  | 0.0003 | 0.00045 | 0.00025 | 0.14 | 38 | 
CC(C)C(=Nc1ccc(C(F)(F)F)cc1)OCc1ccc(F)c(Oc2ccccc2)c1 [Compound 337] | 0.0003 | 0.008 | 0.0053 |  | 0.0005 | 0.0007 | 0.067 | 21 | 0.0005
CC(C)C(=Nc1ccc(OC(F)(F)F)cc1)OCc1ccc(F)c(Oc2ccccc2)c1 [Compound 338] | 0.0003 | 0.01 | 0.0053 |  | 0.00037 | 0.000065 | 0.044 | 26 | 
CC(C)C(=Nc1ccc2c(c1)OCO2)OCc1ccc(F)c(Oc2ccccc2)c1 [Compound 181] |  | 0.01 | 0.005 |  | 0.001 | 0.0005 | > 2.5 | 25 | 0.001
CC(C)C(=Nc1ccc(F)cc1)OCc1ccc(F)c(Oc2ccc(Cl)cc2)c1 [Compound 325] | 0.0001 | 0.037 |  |  | 0.0006 | 0.00012 | > 2.5 | 5 | 0.0025
CC(C)C(=Nc1ccc(F)c(Cl)c1F)OCc1cccc(Oc2ccc(Cl)cc2)c1 [Compound 331] | > 0.05 | 0.04 |  |  | 0.0004 | 0.0002 | > 2.5 | 20 | 0.002
CC(C)C(=Nc1ccc(F)c(Cl)c1)OCc1cccc(Oc2ccc(F)cc2)n1 [Compound 461] | 0.001 | 0.01 | 0.0075 |  |  | 0.00008 | > 2.5 | 6 | 0.0035
CC(C)C(=Nc1ccc2c(c1)OC(F)(F)O2)OCc1ccc(F)c(Oc2ccccc2)c1 [Compound 285] |  | 0.005 | 0.005 |  | 0.00017 | 0.000075 | 0.13 | 36 | 0.0006
CC(C)C(=Nc1ccc(F)c(Cl)c1F)OCc1ccc(F)c(Oc2ccccc2)c1 [Compound 451] | 0.001 | > 0.1 | 0.0051 | 0.0002 | 0.00025 | 0.0001 | 0.065 | 3.6 | 
